# Laboratory results from US6723897B2, “Methods for controlling gibberellin levels” (Monsanto Technology, LLC, priority 1998, dated 2004).
# Experiments:
# [1] = tested on: wild-type soybean line A4922; assay: Field trial of seed coating application rates, wild-type soybean
# Method: GA3, GA3-3-acetate, GA5, GA9, and GA12 are evaluated in further field trials. […] The objectives of these tests are: 1) to determine if seed coatings, as compared to imbibition, of GA compounds facilitate rescue of constitutively GA-deficient transgenic dwarf soybeans (transgenic lines 719−2 plus 719+17) without causing elongation of wild-type soybeans (line A4922), and 2) to determine the seed treatment rate ranges for each of the selected GA compounds that would provide rescue of constitutively GA-deficient transgenic dwarf soybeans (transgenic lines 719−2 plus 719+17) without causing elongation of wild-type soybeans (line A4922).
# Seeds are treated with GA3, GA5, GA9, GA12, and GA3-3-acetate at rates of 0, 0.1, 1, 10, and 100 μg/seed. These GA compounds are applied to the seeds using a Hege 11 seed treater (Hans-Ulrich Hege GmbH & Co., Waldenburg, Germany); 100% acetone is used as the carrier solvent. The amount of liquid introduced into the seed treater is six fluid ounces/100 lbs seed rate. In addition, GA12 is tested at 50 μg/seed. The untreated control (UTC) consisted of dry, untreated seeds. Seeds of constitutively GA-deficient transgenic dwarf soybean line 719 and wild-type A4922 are sown in both light and heavy soil. The planting depth is 0.5 to 1 inch (1.27 to 2.54 cm); watering is via drip irrigation. The experiment is carried out in three repetitions, using 25 seeds/plot (one five foot (152.4 cm) long row) for line 719, and 75 seeds/plot (two eight foot (243.8 cm) rows) for line A4922. Observations included total emergence, number of dwarfs not rescued, uniformity in plant height, average plant height, visual notes, and digital photos.
# In all the experiments reported in Tables 17-24, treatments are replicated three times in a randomized block design. Data are analyzed using LSD (least significant difference) 0.05 probability using the PRM 5.0 Statistical Analysis Program (SAS Institute, North Carolina).
# [2] = tested on: transgenic line 719 soybean; assay: Field trial of seed coatings under soil compaction / different soils, GA-deficient soybean; type: in vivo, Glycine max; settings: for Count (emergence) / Dwarfs (number of dwarfs not rescued) / Dwarfs (number not rescued): Line 719
# [3] = tested on: non-transgenic soybean line A4922; assay: Field trial of seed coatings under soil compaction / different soils, wild-type soybean; type: in vivo, Glycine max; settings: for Count (emergence) / Height (total plant height): A4922
# Method: The second trial (data reported in Tables 22-24) tested the precursors under conditions of soil compaction.
# As noted above, the second trial tested the noted precursors under conditions of soil compaction. These experiments are performed in the same manner as in the first trial, except that the soil is compacted with an all-terrain vehicle.
# “Height” equals total plant height in cm.
# [4] = tested on: AX5/antisense CPScc soybean line 234 (R3); assay: Hilum seed treatment of epicotyl-intensive GA-deficient soybean, height (FIG. 43); type: in vivo, Glycine max; settings: 10 DAP
# Method: The purpose of this study is to evaluate the ability of four GA compounds, i.e., GA9, GA5, GA3-3-acetate, and GA12, to restore normal growth in AX5/antisense CPScc soybean lines when applied as a seed treatment.
# Line 46 plants are R2; Line 234 plants are R3.
# The GA compounds are dissolved in ethanol and applied to the hilum of dry seeds as not more than 10 μl droplets with a syringe. If multiple applications are made to seeds, the previous application is allowed to dry before a subsequent application is made.
# Seeds are sown 1 inch deep in commercial potting soil (Metromix 200) in 4-inch plastic pots and placed in a greenhouse set for 12 hours artificial light and a temperature regime of 85° F. (29° C.) day and 75° F. night (24° C.). Pots are watered as necessary by overhead hand watering. Hypocotyl and epicotyl measurements are made for each plant at various stages of plant growth.
# The lower dashed horizontal line represents the total height of untreated AX5 line 234 soybeans. The upper dashed horizontal line represents the total height of untreated wild-type A4922 soybeans. Measurements are made 10 days after planting.
# [5] = Heavy soil - Loose, target rate 0.5 μg/seed, Table 23
# [6] = Heavy soil - Loose, target rate 4.0 μg/seed, Table 23
# [7] = Heavy soil - Loose, target rate 8.0 μg/seed, Table 23
# [8] = Heavy soil - Loose, target rate 16.0 μg/seed, Table 23
# [9] = Heavy soil - compacted, target rate 0.5 μg/seed, Table 23
# [10] = Heavy soil - compacted, target rate 4.0 μg/seed, Table 23
# [11] = Heavy soil - compacted, target rate 8.0 μg/seed, Table 23
# [12] = Heavy soil - compacted, target rate 16.0 μg/seed, Table 23
# [13] = Heavy soil - loose, target rate 0.5 μg/seed, Table 22
# [14] = Heavy soil - loose, target rate 2.0 μg/seed, Table 22
# [15] = Light soil - Compacted, target rate 0.5 μg/seed, Table 22
# [16] = Light soil - Compacted, target rate 2.0 μg/seed, Table 22
# [17] = Light soil - Loose, target rate 0.5 μg/seed, Table 24
# [18] = Light soil - Loose, target rate 2.0 μg/seed, Table 24
# [19] = Light soil - Loose, target rate 4.0 μg/seed, Table 24
# [20] = Light soil - compacted, target rate 0.5 μg/seed, Table 24
# [21] = Light soil - compacted, target rate 2.0 μg/seed, Table 24
# [22] = Light soil - compacted, target rate 4.0 μg/seed, Table 24
compound,measurement,setting,value
"C=C1C[C@]23C[C@@]1(O)CC[C@H]2[C@@]12C=C[C@H](O)[C@@](C)(C(=O)O1)[C@H]2[C@@H]3C(=O)O [GA3, gibberellic acid]","A4922 Height, cm, Heavy soil",[1]; 0.1 μg compound per seed,5.7 efg cm
same,"A4922 Height, cm, Light soil",[1]; 0.1 μg compound per seed,6.7 fg·cm
same,"No. A4922 Emerged, Heavy soil",[1]; 0.1 μg compound per seed,28.0 c-g
same,"No. A4922 Emerged, Light soil",[1]; 0.1 μg compound per seed,42.7 e-i
same,"A4922 Height, cm, Heavy soil",[1]; 1 μg compound per seed,6.0 efg cm
same,"A4922 Height, cm, Light soil",[1]; 1 μg compound per seed,8.3 ef cm
same,"No. A4922 Emerged, Heavy soil",[1]; 1 μg compound per seed,16.7 g
same,"No. A4922 Emerged, Light soil",[1]; 1 μg compound per seed,36.3 i
same,"A4922 Height, cm, Heavy soil",[1]; 10 μg compound per seed,10.3 cm·days
same,"A4922 Height, cm, Light soil",[1]; 10 μg compound per seed,12.7 cm·days
same,"No. A4922 Emerged, Heavy soil",[1]; 10 μg compound per seed,28.7 c-g
same,"No. A4922 Emerged, Light soil",[1]; 10 μg compound per seed,39.7 f-j
same,"A4922 Height, cm, Heavy soil",[1]; 100 μg compound per seed,21.0 a cm
same,"A4922 Height, cm, Light soil",[1]; 100 μg compound per seed,27.0 ab cm
same,"No. A4922 Emerged, Heavy soil",[1]; 100 μg compound per seed,19.7 efg
same,"No. A4922 Emerged, Light soil",[1]; 100 μg compound per seed,38.0 hi
same,"% Emergence, Heavy Soil-Loose",[2]; 0.1 μg/seed,78%
same,"% Emergence, Light Soil-Compact",[2]; 0.1 μg/seed,59%
same,"% Rescue, Heavy Soil-Loose",[2]; 0.1 μg/seed,80%
same,"% Rescue, Light Soil-Compact",[2]; 0.1 μg/seed,100%
same,"% Emergence, Heavy Soil-Loose",[2]; 2.0 μg/seed,66%
same,"% Emergence, Light Soil-Compact",[2]; 2.0 μg/seed,51%
same,"% Rescue, Heavy Soil-Loose",[2]; 2.0 μg/seed,93%
same,"% Rescue, Light Soil-Compact",[2]; 2.0 μg/seed,100%
same,Count (emergence),[2]; [5],27.3 cd
same,Dwarfs (number of dwarfs not rescued),[2]; [5],2.0 cde
same,Count (emergence),[2]; [6],14.3 f
same,Dwarfs (number of dwarfs not rescued),[2]; [6],0 e
same,Count (emergence),[2]; [7],35.3 abc
same,Dwarfs (number of dwarfs not rescued),[2]; [7],0.7 cde
same,Count (emergence),[2]; [8],30.7 bcd
same,Dwarfs (number of dwarfs not rescued),[2]; [8],0 e
same,Count (emergence),[2]; [9],7.7 efg
same,Dwarfs (number of dwarfs not rescued),[2]; [9],0.3 cd
same,Dwarfs (number of dwarfs not rescued),"[2]; Heavy soil - compacted, target rate 2.0 μg/seed, Table 23",0 days
same,Count (emergence),[2]; [10],3.3 fg
same,Dwarfs (number of dwarfs not rescued),[2]; [10],0 days
same,Count (emergence),[2]; [11],8.7 g·days
same,Dwarfs (number of dwarfs not rescued),[2]; [11],0 days
same,Count (emergence),[2]; [12],12.0 b-e
same,Dwarfs (number of dwarfs not rescued),[2]; [12],0 days
same,Count (emergence),[2]; [13],27 cd
same,Dwarfs (number of dwarfs not rescued),[2]; [13],2.0 cde
same,Count (emergence),[2]; [14],25 de
same,Dwarfs (number of dwarfs not rescued),[2]; [14],0.7 cde
same,Count (emergence),[2]; [15],22 efg
same,Dwarfs (number of dwarfs not rescued),[2]; [15],0 days
same,Count (emergence),[2]; [16],19 fg
same,Dwarfs (number of dwarfs not rescued),[2]; [16],0 days
same,Count (emergence),[2]; [17],45.0 ab
same,Dwarfs (number not rescued),[2]; [17],0 e
same,Count (emergence),[2]; [18],43.7 ab
same,Dwarfs (number not rescued),[2]; [18],0 e
same,Count (emergence),[2]; [19],39.3 b
same,Dwarfs (number not rescued),[2]; [19],0 e
same,Count (emergence),[2]; [20],1.2e+16 fg
same,Dwarfs (number not rescued),[2]; [20],0
same,Count (emergence),[2]; [21],19.3 fg
same,Dwarfs (number not rescued),[2]; [21],0
same,Count (emergence),[2]; [22],26.3 c-f
same,Dwarfs (number not rescued),[2]; [22],0
same,rank of potential for rescuing GA-deficient dwarf soybeans without decreasing emergence,[2]; based on the last two field trials,GA9>GA5>GA3-3-acetate>GA3>GA12
same,best to least selectivity order,"[2]; emergence under soil compaction, margin of selectivity, rescue without overelongation, Table 22",GA9>GA5>GA3-3-acetate>GA3
same,Count (emergence),[3]; [5],25.0 cde
same,Height (total plant height),[3]; [5],5.0 efg cm
same,Count (emergence),[3]; [6],24.7 de
same,Height (total plant height),[3]; [6],8.7 a cm
same,Count (emergence),[3]; [7],29.3 a-d
same,Height (total plant height),[3]; [7],6.3 cde cm
same,Count (emergence),[3]; [8],24.7 dc
same,Height (total plant height),[3]; [8],7.0 bc cm
same,Count (emergence),[3]; [9],8.3 cd
same,Height (total plant height),[3]; [9],4.3 b-e cm
same,Count (emergence),[3]; [10],4.0 de
same,Height (total plant height),[3]; [10],8.0 a cm
same,Count (emergence),[3]; [11],9.7 a-d
same,Height (total plant height),[3]; [11],6.0 bc cm
same,Count (emergence),[3]; [12],6.3 cde
same,Height (total plant height),[3]; [12],6.7 ab cm
same,Count (emergence),[3]; [13],25 cde
same,Height (total plant height),[3]; [13],5.0 efg cm
same,Count (emergence),[3]; [14],21 ef
same,Height (total plant height),[3]; [14],6.7 bcd cm
same,Count (emergence),[3]; [15],28 bcd
same,Height (total plant height),[3]; [15],5.7 def cm
same,Count (emergence),[3]; [16],13 ef
same,Height (total plant height),[3]; [16],8.0 c cm
same,Count (emergence),[3]; [17],43.0 abc
same,Height (total plant height),[3]; [17],7.0 ef cm
same,Count (emergence),[3]; [18],38.3 bc
same,Height (total plant height),[3]; [18],9.0 cd cm
same,Count (emergence),[3]; [19],37.7 c
same,Height (total plant height),[3]; [19],10.3 b cm
same,Count (emergence),[3]; [20],28.3 bcd
same,Height (total plant height),[3]; [20],5.7 def cm
same,Count (emergence),[3]; [21],12.7 ef
same,Height (total plant height),[3]; [21],8.0 c cm
same,Count (emergence),[3]; [22],7.7 f
same,Height (total plant height),[3]; [22],10.3 b cm
same,emergence at approximately equivalent biological response (height),"[3]; compacted soil, FIG. 40",68%
same,restoration of height of line 234 soybeans,"[4]; hypocotyl and epicotyl elongation, hypocotyl to epicotyl ratio not maintained",restore normal height to line 234 soybeans
same,response of line 234 height,[4]; seed treatment rates between 0.1 and 1 μg/seed,generally similar response
